Data from the OPERA property sets (Mansouri et al. 2018).

Row | SMILES | boiling point [°C] | melting point [°C] | also measured
1 | CN(C)CCOCCN(C)C | – | – | ready biodegradability: not readily biodegradable
2 | Cc1ccc(O)c(O)c1 | 251 | 65 | ready biodegradability: not readily biodegradable
3 | CCOS(=O)(=O)Cl | 152 | – | –
4 | FCBr | 19 | – | –
5 | CCC(Oc1c(I)cc(I)cc1I)C(=O)O (stereo unspecified) | – | 124 | –
6 | c1ccc2c(c1)ccc1[nH]c3ccccc3c12 | 448 | 134 | –
7 | c1ccc(OC2CCCCC2)cc1 | 261 | – | –
8 | CCC(C)(CC)c1cc(NC(=O)c2c(OC)cccc2OC)on1 | – | 178 | log10 Koc (L/kg): 2.4; log10 vapour pressure (mmHg): -8.38
9 | CC(=O)[C@H]1CC[C@H]2[C@@H]3CC[C@H]4C[C@H](N)CC[C@]4(C)[C@H]3CC[C@]12C | – | 126 | –
10 | CCOCCO | 135 | -70 | log10 Henry constant (atm·m³/mol): -6.33; log10 vapour pressure (mmHg): 0.725; ready biodegradability: readily biodegradable
11 | CC(C)C(C)(C)C | 80.8 | -25 | log10 biodegradation half-life (days): 0.778; log10 vapour pressure (mmHg): 2.01
12 | O=C(Nc1ccc(Cl)c(Cl)c1)Nc1cc(Cl)ccc1Oc1ccc(Cl)cc1S(=O)(=O)[O-].[Na+] | – | 223 | –
13 | Fc1ccccc1 | 84.7 | -42.2 | log10 Henry constant (atm·m³/mol): -2.2; log10 vapour pressure (mmHg): 1.89
14 | C1=CSCC1 | 112 | – | –
15 | CC(C)(N=C=O)c1ccc(C(C)(C)N=C=O)cc1 | – | – | log10 vapour pressure (mmHg): -3.12
16 | CCOC(=O)c1ccc(Br)cc1 | 263 | – | –
17 | O=[N+]([O-])c1cc(Cl)ccc1O | – | 88.5 | ready biodegradability: not readily biodegradable
18 | C=CC(C)(O)CC(C)C (stereo unspecified) | 146 | – | –
19 | CCCCCOC(=O)Nc1ccccc1 | – | – | log10 Koc (L/kg): 2.61
20 | Cc1ccc(C#N)c(=O)[nH]1 | – | – | ready biodegradability: readily biodegradable
21 | C=C(CC(=O)O)C(=O)O | – | 175 | ready biodegradability: readily biodegradable
22 | Oc1ccccc1-c1nc2ccccc2s1 | – | 131 | –
23 | Sc1ccccc1Cl | 206 | – | –
24 | FC(F)(F)c1ccc2c(c1)Nc1ccccc1S2 | – | 189 | –
25 | N#CC(C#N)=C(C#N)C#N | – | 199 | –
26 | CCNCCNCC | 146 | – | –

Row | SMILES | boiling point [°C] | melting point [°C] | also measured
27 | N#CCC(=O)c1ccccc1 | – | 80.5 | –
28 | Cl.Nc1ccccc1 | – | 198 | –
29 | CCCCCCCCCCCCCCCCCC(=O)OCCOCCOCCOCCO | – | 40 | –
30 | CC1(C)C(C=C(Cl)Cl)C1C(=O)OC(C#N)c1ccc(F)c(Oc2ccccc2)c1 (stereo unspecified) | – | 60 | log10 Koc (L/kg): 5; log10 vapour pressure (mmHg): -9.82
31 | COc1ccc(OC)c(C=O)c1 | 270 | 52 | –
32 | C1=CCC(c2ccccc2)CC1 (stereo unspecified) | – | – | ready biodegradability: readily biodegradable
33 | COc1ccc(Cn2cncn2)cc1 | – | 41.5 | –
34 | CC(C)CCCCO | 170 | – | –
35 | Cc1c(Cl)ccc(Cl)c1Cl | – | – | log10 Henry constant (atm·m³/mol): -2.82
36 | OC1CCCCC1c1ccccc1 (stereo unspecified) | 228 | – | log10 vapour pressure (mmHg): -1.44
37 | Cc1cc(N)ccc1Br | 240 | 81 | log10 Koc (L/kg): 2.26
38 | CC(=O)[C@@]1(O)[C@H](O)C[C@H]2[C@@H]3CCC4=CC(=O)CC[C@]4(C)[C@H]3CC[C@@]21C | – | 225 | –
39 | ICI | 182 | 6.1 | log10 Henry constant (atm·m³/mol): -3.49; log10 vapour pressure (mmHg): 0.0792
40 | c1ccc(CCCCc2ccccc2)cc1 | 317 | 52.5 | –
41 | O=C(O)c1c(F)c(F)c(F)c(F)c1C(=O)O | – | 163 | –
42 | O=C(O)c1cc(C(=O)O)c(C(=O)O)cc1C(=O)O | – | 276 | –
43 | CCOC(=O)C(CC)(CC)C(=O)OCC | 230 | – | –
44 | CCCCCCC | 98.5 | -90.6 | log10 Koa: 2.95; log10 biodegradation half-life (days): 0.845; log10 vapour pressure (mmHg): 1.66; ready biodegradability: readily biodegradable
45 | O[C@@H]1[C@H]2CC[C@H](C2)[C@@H]1O | – | 139 | –
46 | CCCCCCCCCCCCN(C)C | 260 | 22 | ready biodegradability: readily biodegradable
47 | C1CCCCCCCCCCCCCC1 | – | 61.3 | –
48 | CCCCCCCCCCCCCC(=O)OCc1ccccc1 | – | 20.5 | –
49 | O=C1C=CC(=O)C=C1 | – | 116 | log10 vapour pressure (mmHg): -1.05
50 | On1nnc2ccccc21 | – | 158 | –
51 | CC(C(=O)O)c1ccc(C2CCC/C(=N\O)C2)cc1 (stereo unspecified) | – | 178 | –
